{"source": "patent US3972991A", "about": "“Radioisotopic assay and binder therefor” (priority 1974, dated 1976)", "key": {"hog kidney binder factor [1]": {"system": "hog kidney binder factor", "assay": "effect of enzymes, pH, ions, chelators, denaturants and other agents on binding of 3H-PGA to hog kidney binder", "details": "for effect on binding activity of the binder composition: before complex formation"}, "storage stability": {"assay": "storage stability", "format": "physicochemical", "method": "The standard or known folate (d,1,L-5-methyltetrahydrofolic acid) (Sigma Chemical) is dissolved in 0.05 M potassium phosphate buffer pH 7.6 and then brought to 0.1 M with 2-mercapto-ethanol. Here the mercapto-alcohol acts as a stabilizer for the folate or folic acid.\nHigh specific activity ^3 H-PGA (15-50 Ci/m mole; Amersham Searle) is conveniently utilized as the tracer or labeled compound. It is dissolved in 20% ethanol and stored at -80°C. For use in the assay, the stock solution is diluted 1:100 in potassium phosphate buffer (0.05 M pH 7.6).\nFinely divided activated charcoal coated with albumin is prepared by mixing equal volumes of a 5% powdered activated charcoal (Norit A) suspension (w/v, in distilled water) and a 1% aqueous solution of bovine albumin (Fraction V of Cohn).\nBlood to be assayed for folate is obtained by venapuncture and allowed to clot at room temperature. The serum is collected by centrifugation and 5 milligrams of ascorbic acid per milliliter of serum is added."}, "hog kidney folate binder": {"molecular_target": "hog kidney folate binder", "assay": "direct competition for PGA binding sites in hog kidney folate binder (FIG. 6A)", "experimental": "The reaction was started by addition of folate binder and allowed to proceed for 30 minutes at room temperature in the dark. The reaction was stopped by placing the tubes on ice and adding 1.0 ml of a suspension of powdered activated charcoal coated with albumin. After 2 to 3 minutes on ice, the tubes were centrifuged at 6000 × G for 10 minutes at 4°C to remove the charcoal absorbed \"free\" folate. 1.0 ml of the clear supernatant fluid which contained the folate/binder complex was counted by liquid scintillation spectroscopy according to known procedures. Charcoal controls prepared by substituting buffer for binder in one series of tubes were prepared to determine the number of counts not removed by the charcoal. Percent maximum binding was calculated by the formula [formula]"}, "hog kidney binder factor [2]": {"system": "hog kidney binder factor", "assay": "sequential addition of unlabeled folate derivatives and 3H-PGA, displacement (FIG. 6B)", "format": "binding", "details": "PGA curve of FIG. 6B", "experimental": "The binding conditions were similar to those used in obtaining the data appearing in FIG. 6A except that 3 pmoles of ^3 H-PGA was added to the reaction containing enough binder factor to bind about 2.5 pmoles of PGA. The binder was preincubated for 30 minutes in the dark at room temperature with unlabeled folate derivatives as indicated. Then the ^3 H-PGA was added and the reaction allowed to continue for an additional 30 minutes and then stopped and counted as in obtaining the data for FIG. 6A.\nThe calculated curve of FIG. 6B depicts the relationship to be expected by balancing on a molar basis the binding capacity of the hog kidney binder factor with the known pmoles of folate analog added in the absence of any displacement. […] The hog kidney binder factor thus differs from other high affinity folate binder factors such as those found in milk and in serum and in leukocytes of some patients with chronic granulocytic leukemia."}, "hog kidney binder": {"system": "hog kidney binder", "assay": "direct binding studies with labeled folates on hog kidney binder"}, "hog kidney binder factor [3]": {"system": "hog kidney binder factor", "assay": "rate of PGA binder complex formation and dissociation", "format": "binding", "details": "for initial rate of binding: 3H-PGA approximately 20% excess", "experimental": "The rate of PGA binder complex formation with hog kidney binder factor was determined at several temperatures by equilibrating solutions of the binder and of ^3 H-PGA at the appropriate temperature and then combining aliquots of each such that the ^3 H-PGA was in approximately 20% excess to the binding capacity of the hot kidney binder factor composition. The reaction was terminated by the addition of 1.0 ml of ice cold suspension of powdered activated charcoal coated with albumin."}, "All other binder factors": {"system": "All other binder factors", "assay": "inactivation of other binder factors by trypsin", "format": "binding", "details": "trypsin solution 1:250, 1 mg/ml", "experimental": "Preincubating a 1.0 ml aliquot of binder extract from hog kidney having a binding capacity of 25 ng PGA/ml, with 1.0 ml RNase (Worthington, 2 micrograms per ml) or with DNase I (Worthington 2 micrograms per ml) for 30 minutes at 37°C had no effect on the binding of ^3 H-PGA. […] All other binder factors are inactivated by a trypsin solution 1:250, 1 mg/ml."}}, "note": "Where a name gives a salt, the structure may show the parent alone.", "data": [{"molecule": "OCCS", "note": "[2-mercaptoethanol]", "values": [{"measurement": "effect on the binding reaction", "setting": "hog kidney binder factor [1]; concentrations of 10^-^7 to 10^-^1 M", "value": "no effect"}]}, {"molecule": "CN1c2c(nc(N)[nH]c2=O)NCC1CNc1ccc(C(=O)N[C@@H](CCC(=O)O)C(=O)O)cc1", "note": "(stereo partly shown) [5CH3 FH4, d,1,5-methyltetrahydrofolic acid]", "values": [{"measurement": "stability of stock solution", "setting": "storage stability; approximately 5 micrograms per ml, 0.1 M 2-mercaptoethanol, pH 7.6, -80°C", "value": "at least 6 months"}, {"measurement": "amount required to achieve 50% inhibition of 3H-PGA binding", "setting": "hog kidney folate binder; FIG. 6A, 0.225 pmoles 3H-PGA, pH 7.6, total volume 1.0 ml, 30 min room temperature", "value": "about 0.32 pmoles"}, {"measurement": "tightness of binding of the hog kidney binder factor with PGA and 5CH3 FH4", "setting": "hog kidney binder factor [2]", "value": "approximately equal"}]}, {"molecule": "O=C(O)CN(CCN(CC(=O)O)CC(=O)O)CC(=O)O", "note": "[EDTA, ethyldiamine tetraacetic acid]", "values": [{"measurement": "effect on binding at any pH", "setting": "hog kidney binder factor [1]; 20 mM", "value": "No effect"}]}, {"molecule": "Nc1nc2c(c(=O)[nH]1)NC(CN(C=O)c1ccc(C(=O)N[C@@H](CCC(=O)O)C(=O)O)cc1)CN2", "note": "(stereo partly shown) [N-10, formyltetrahydrofolic acid]", "values": [{"measurement": "competition for PGA binding sites", "setting": "hog kidney folate binder", "value": "high degree of competition"}]}, {"molecule": "CN(Cc1cnc2nc(N)nc(N)c2n1)c1ccc(C(=O)N[C@@H](CCC(=O)O)C(=O)O)cc1", "note": "[^3 H-MTX, ^3 H-methotrexate]", "values": [{"measurement": "binding affinity less than that of 3H-PGA", "setting": "hog kidney binder; direct binding, 3H-MTX 13 Ci/mmole", "value": "at least 500 times"}]}, {"molecule": "[14CH3]N1c2c([nH]c(N)nc2=O)NCC1CNc1ccc(C(=O)N[C@@H](CCC(=O)O)C(=O)O)cc1", "note": "(stereo partly shown) [^14 C--5CH3 FH4]", "values": [{"measurement": "binding results compared with those obtained with 3H-PGA", "setting": "hog kidney binder", "value": "essentially the same"}, {"measurement": "bound by the extract, of the available labeled folate", "setting": "hog kidney binder", "value": "more than 90%"}]}, {"molecule": "[Ca+2]", "note": "[calcium]", "values": [{"measurement": "effect on binding at any pH", "setting": "hog kidney binder factor [1]; 5 mM", "value": "No effect"}]}, {"molecule": "O=C(O)CC(O)(CC(=O)O)C(=O)O", "note": "[citrate]", "values": [{"measurement": "effect on binding at any pH", "setting": "hog kidney binder factor [1]; 10 mM", "value": "No effect"}]}, {"molecule": "Nc1nc2c(c(=O)[nH]1)NC(CNc1ccc(C(=O)N[C@@H](CCC(=O)O)C(=O)O)cc1)CN2", "note": "(stereo partly shown) [d, 1-tetrahydrofolic acid]", "values": [{"measurement": "competition for PGA binding sites", "setting": "hog kidney folate binder", "value": "high degree of competition"}]}, {"molecule": "N=C(N)N", "note": "[guanidine hydrochloride]", "values": [{"measurement": "effect on folate binder complex after it had formed", "setting": "hog kidney binder factor [1]; 6 M", "value": "could disrupt the complex"}, {"measurement": "reversibility of the guanidine hydrochloride effect", "setting": "hog kidney binder factor [1]; 6 M", "value": "nearly completely reversible"}, {"measurement": "effect on binding activity of the binder composition", "setting": "hog kidney binder factor [1]; 6 M", "value": "binding activity was lost"}]}, {"molecule": "[Mg+2]", "note": "[magnesium]", "values": [{"measurement": "effect on binding at any pH", "setting": "hog kidney binder factor [1]; 5 mM", "value": "No effect"}]}, {"molecule": "c1cnc2c(c1)ccc1cccnc12", "note": "[o-phenanthroline]", "values": [{"measurement": "effect on the binding reaction", "setting": "hog kidney binder factor [1]; concentrations up to 2.0 × 10^-^6 M", "value": "no effect"}]}, {"molecule": "NC(N)=O", "note": "[urea]", "values": [{"measurement": "effect on folate binder complex after it had formed", "setting": "hog kidney binder factor [1]; 8 M", "value": "no effect"}, {"measurement": "effect on binding activity of the binder composition", "setting": "hog kidney binder factor [1]; 8 M", "value": "binding activity was lost"}]}, {"molecule": "[Zn]", "note": "[zinc]", "values": [{"measurement": "effect on binding at any pH", "setting": "hog kidney binder factor [1]; 5 mM", "value": "No effect"}]}, {"molecule": "^3 H-pteroylmonoglutamate [^3 H-PGA]", "values": [{"measurement": "stability", "setting": "storage stability", "value": "unstable"}, {"measurement": "initial rate of binding", "setting": "hog kidney binder factor [3]; 4°C", "value": "about 0.65 % per second"}, {"measurement": "initial rate of binding", "setting": "hog kidney binder factor [3]; 21°C", "value": 1.3, "unit": "% per second"}, {"measurement": "initial rate of binding", "setting": "hog kidney binder factor [3]; 37°C", "value": 2.5, "unit": "% per second"}, {"measurement": "disassociation of the 3H-PGA binder complex", "setting": "hog kidney binder factor [3]; one hour at 37°C, 50-fold excess of unlabeled PGA", "value": "no significant disassociation"}]}, {"molecule": "trypsin: solution of trypsin (protein, UniProt P00760 24-246, looked up) Serine protease 1: IVGGYTCGANTVPYQVSLNSGYHFCGGSLINSQWVVSAAHCYKSGIQVRLGEDNINVVEGNEQFISASKSIVHPSYNSNTLNNDIMLIKLKSAASLNSRVASISLPTSCASAGTQCLISGWGNTKSSGTSYPDVLKCLKAPILSDSSCKSAYPGQITSNMFCAGYLEGGKDSCQGDSGGPVVCSGKLQGIVSWGSGCAQKNKPGVYTKVCNYVSWIKQTIASN", "values": [{"measurement": "effect of preincubation with trypsin on hog binder factor", "setting": "hog kidney binder factor [1]; 1.0 ml trypsin solution, 30 minutes", "value": "completely inactivated"}, {"measurement": "inactivation of other binder factors by trypsin", "setting": "All other binder factors", "value": "inactivated"}]}, {"molecule": "RNase: RNase (Worthington) (protein, UniProt P61823 27-150, looked up) Ribonuclease pancreatic: KETAAAKFERQHMDSSTSAASSSNYCNQMMKSRNLTKDRCKPVNTFVHESLADVQAVCSQKNVACKNGQTNCYQSYSTMSITDCRETGSSKYPNCAYKTTQANKHIIVACEGNPYVPVHFDASV", "values": [{"measurement": "effect of preincubation on binding of 3H-PGA", "setting": "hog kidney binder factor [1]; 2 micrograms per ml, 30 minutes at 37°C", "value": "no effect"}]}]}
